Results as given in ChEMBL document CHEMBL1201862, “PubChem BioAssay data set” (2004).
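Briefly, cells in 96-well plates were exposed to five compound concentrations for 48 h, and endpoints were estimated by linear interpolation. GI50 is the concentration that inhibits growth by half.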 Calls of active or inactive are those of the source. Rule as the data show it: active = GI50 up to about 1.1 µM and inactive = higher.

Key:
Test in all cases: growth of human tumour cells (NCI), 48 h
HCT-116 = test system: HCT-116
RXF 393 = test system: RXF 393
SK-MEL-28 = test system: SK-MEL-28
HCT-15 = test system: HCT-15
SK-MEL-5 = test system: SK-MEL-5
OVCAR-3 = test system: OVCAR-3
HCC 2998 = test system: HCC 2998
Malme-3M = test system: Malme-3M
MCF7 = test system: MCF7
HL-60 = test system: HL-60
MDA-MB-435 = test system: MDA-MB-435
TK-10 = test system: TK-10
A498 = test system: A498
SW-620 = test system: SW-620
SNB-19 = test system: SNB-19
UACC-257 = test system: UACC-257
BT-549 = test system: BT-549
SK-OV-3 = test system: SK-OV-3
SR = test system: SR
UO-31 = test system: UO-31
NCI-H460 = test system: NCI-H460
CAKI-1 = test system: CAKI-1
SNB-75 = test system: SNB-75
SK-MEL-2 = test system: SK-MEL-2
COLO 205 = test system: COLO 205
UACC-62 = test system: UACC-62
MOLT-4 = test system: MOLT-4
U-251 = test system: U-251
OVCAR-5 = test system: OVCAR-5
SF-295 = test system: SF-295
OVCAR-4 = test system: OVCAR-4
DU-145 = test system: DU-145
NCI/ADR-RES = test system: NCI/ADR-RES
HOP-92 = test system: HOP-92
EKVX = test system: EKVX
SF-539 = test system: SF-539
M14 = test system: M14
SF-268 = test system: SF-268
MDA-MB-231 = test system: MDA-MB-231
Hs-578T = test system: Hs-578T
HOP-62 = test system: HOP-62
SN12C = test system: SN12C
CCRF-CEM = test system: CCRF-CEM
A549 = test system: A549
K562 = test system: K562
OVCAR-8 = test system: OVCAR-8
LOX IMVI = test system: LOX IMVI
MDA-N = test system: MDA-N
IGROV-1 = test system: IGROV-1
NCI-H226 = test system: NCI-H226
T47D = test system: T47D
HT-29 = test system: HT-29
NCI-H23 = test system: NCI-H23
PC-3 = test system: PC-3

Structure (SMILES): O=C1CC2(CCC(O)(c3ccccc3)C(C(=O)c3ccccc3)C2)C(=O)c2ccccc2N1 (centres undefined)
- GI50 (HCT-116): > 100 µM (inactive)
- GI50 (RXF 393): > 100 µM (inactive)
- GI50 (SK-MEL-28): > 100 µM (inactive)
- GI50 (HCT-15): > 100 µM
- GI50 (SK-MEL-5): > 100 µM (inactive)
- GI50 (OVCAR-3): > 100 µM (inactive)
- GI50 (HCC 2998): > 100 µM (inactive)
- GI50 (Malme-3M): > 100 µM (inactive)
- GI50 (MCF7): > 100 µM (inactive)
- GI50 (HL-60): > 100 µM (inactive)
- GI50 (MDA-MB-435): > 100 µM (inactive)
- GI50 (TK-10): > 100 µM (inactive)
- GI50 (A498): > 100 µM (inactive)
- GI50 (SW-620): > 100 µM (inactive)
- GI50 (SNB-19): > 100 µM (inactive)
- GI50 (UACC-257): > 100 µM (inactive)
- GI50 (BT-549): > 100 µM (inactive)
- GI50 (SK-OV-3): > 100 µM (inactive)
- GI50 (SR): > 100 µM (inactive)
- GI50 (UO-31): > 100 µM (inactive)
- GI50 (NCI-H460): > 100 µM (inactive)
- GI50 (CAKI-1): > 100 µM (inactive)
- GI50 (SNB-75): > 100 µM (inactive)
- GI50 (SK-MEL-2): > 100 µM (inactive)
- GI50 (COLO 205): > 100 µM (inactive)
- GI50 (UACC-62): > 100 µM (inactive)
- GI50 (MOLT-4): > 100 µM (inactive)
- GI50 (U-251): > 100 µM (inactive)
- GI50 (OVCAR-5): > 100 µM (inactive)
- GI50 (SF-295): > 100 µM (inactive)
- GI50 (OVCAR-4): 38.2 µM (inactive)
- GI50 (DU-145): > 100 µM (inactive)
- GI50 (NCI/ADR-RES): > 100 µM (inactive)
- GI50 (HOP-92): 93.5 µM (inactive)
- GI50 (EKVX): > 100 µM (inactive)
- GI50 (SF-539): > 100 µM (inactive)
- GI50 (M14): > 100 µM (inactive)
- GI50 (SF-268): > 100 µM (inactive)
- GI50 (MDA-MB-231): > 100 µM (inactive)
- GI50 (Hs-578T): > 100 µM (inactive)
- GI50 (HOP-62): > 100 µM (inactive)
- GI50 (SN12C): > 100 µM (inactive)
- GI50 (CCRF-CEM): 46.8 µM (inactive)
- GI50 (A549): > 100 µM (inactive)
- GI50 (K562): > 100 µM (inactive)
- GI50 (OVCAR-8): > 100 µM (inactive)
- GI50 (LOX IMVI): > 100 µM (inactive)
- GI50 (MDA-N): > 100 µM (inactive)
- GI50 (IGROV-1): > 100 µM (inactive)
- GI50 (NCI-H226): > 100 µM (inactive)
- GI50 (T47D): > 100 µM (inactive)
- GI50 (HT-29): > 100 µM (inactive)
- GI50 (NCI-H23): > 100 µM (inactive)
- GI50 (PC-3): > 100 µM (inactive)
